From patent US20160046592A1, “PHARMACEUTICAL COMPOSITION FOR THE TREATMENT OF DIABETES” (Ajinomoto Co., Inc., priority 2013, published 2016)
Counter-ions that a name gives are not always drawn.

Target: T1, PPAR-α (Homo sapiens, UniProt Q07869)
T1 construct: expressed in transfected cells; host or cells: CV-1 (African green monkey kidney)
T1 sequence (Q07869 167-468): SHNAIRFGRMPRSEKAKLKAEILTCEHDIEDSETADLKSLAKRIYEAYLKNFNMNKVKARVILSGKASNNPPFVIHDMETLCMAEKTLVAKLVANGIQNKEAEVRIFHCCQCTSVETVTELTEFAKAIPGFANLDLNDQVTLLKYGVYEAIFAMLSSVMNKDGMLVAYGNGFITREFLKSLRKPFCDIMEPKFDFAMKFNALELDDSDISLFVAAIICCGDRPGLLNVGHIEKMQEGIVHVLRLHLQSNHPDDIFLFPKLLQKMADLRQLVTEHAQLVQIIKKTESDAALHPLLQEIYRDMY
Test: Measurement of PPAR-α activity (GAL4 luciferase reporter assay in CV-1 cells)
Assay type: cell-based
Conditions: 100(A/B): A = maximum PPAR-α activity of test compound at 3, 10, 30 and 100 μM, B = activity of the compound of WO/2011/058154 at 100 μM, 18 to 20 hours, read-out: Relative fold induction (%) of PPAR α
Protocol: The PPAR-α activity was measured according to the published article (THE JOURNAL OF BIOLOGICAL CHEMISTRY Vol. 270, No 0.22: 12953-12956, 1995).
Plasmids used for the PPAR-α activity measurement were constructed as follows. A luciferase expression plasmid (UAS×5-TK-Luc) used was obtained by introducing a sequence in which five yeast GAL4-binding sequences are linked in tandem into a portion upstream of a thymidine kinase promoter of pTAL-Luc (Takara Bio Inc., 6252-1). A PPAR-α receptor expression plasmid (hGR-GAL4-hPPARα) used was obtained by introducing a human GR N-terminal region (1-76aa), a yeast GAL4 DNA-binding region (1-147aa), and a PPARα ligand-binding region (167-468aa) between Not I and Sal I sites of pExchange-1 Core Vector (Invitrogen, 211176).
A reporter assay was conducted by the following method using African green monkey kidney-derived CV-1 cells. The CV-1 cells were seeded in a 96-well plate (Thermo Fisher Scientific K.K., 4938) at 2×10^4 cells/well by using a 10% FBS-containing DMEM (NACALAI TESQUE, INC., 0845874) medium. After culturing under conditions of 37° C. and 5% CO2 for 2 hours, the cells were transfected with the plasmids. The transfection was conducted by using Lipofectamine LTX (Invitrogen, 15338-100) according to the attached manual. The plasmid solution was prepared by adding a mixture solution of the luciferase expression plasmid and the PPAR-α receptor expression plasmid to OPTI-MEM I (Invitrogen, 11058-021). After the transfection, the test compound was added, and the cells were cultured at 37° C. in the presence of 5% CO2 for 18 to 20 hours. After the culturing, the luciferase activity was measured with Luminescensor JNR (ATTO) by using Bright-Glo (Promega, E2620).
The fold induction of PPAR-α by each test compound was calculated by the following method. A relative fold induction (%) of PPAR-α by the test compound was defined as 100 (A/B), where A represents the maximum value of the PPAR-α activities of the test compound at 3 μM, 10 μM, 30 μM, and 100 μM, and B represents the PPAR-α activity of the compound of WO/2011/058154 at 100 μM.

Row | Emax [%] | SMILES
1 | 25 | CSc1cc(F)c(F)cc1-c1ccc(OCc2cccc(C(=O)N(CCNC(C)=O)CC(=O)O)c2)cc1 [Example 44, 2-[2-Acetamidoethyl-[3-[[4-(4,5-difluoro-2-methylsulfanyl-phenyl)phenoxy]methyl]benzoyl]amino]acetic Acid]
2 | 25 | COC(C)CN(CC(=O)O)C(=O)c1cccc(COc2ccc(-c3cc(F)c(F)cc3SC)cc2)c1 (centres unmarked) [Example 45, 2-[[3-[[4-(4,5-Difluoro-2-methylsulfanyl-phenyl)phenoxy]methyl]benzoyl]-(2-methoxypropyl)amino]acetic Acid]
3 | 4.6 | CSc1cc(F)c(F)cc1-c1ccc(OCc2cccc(C(=O)N(CC(=O)O)CC3CCS(=O)(=O)C3)c2)cc1 (centres unmarked) [Example 46, 2-[[3-[[4-(4,5-Difluoro-2-methylsulfanyl-phenyl)phenoxy]methyl]benzoyl]-[(1,1-dioxothiolan-3-yl)methyl]amino]acetic Acid]
4 | 7.3 | CSc1cc(F)c(F)cc1-c1ccc(OCc2cccc(C(=O)N(CC(=O)O)Cc3cnco3)c2)cc1 [Example 47, 2-[[3-[[4-(4,5-Difluoro-2-methylsulfanyl-phenyl)phenoxy]methyl]benzoyl]-(oxazol-5-ylmethyl)amino]acetic Acid]
5 | 4 | CSc1cc(F)c(F)cc1-c1ccc(OCc2cccc(C(=O)N(CC(=O)O)[C@H]3CC[C@@H](N)CC3)c2)cc1 [Example 48, 2-[(4-Aminocyclohexyl)-[3-[[4-(4,5-difluoro-2-methylsulfanyl-phenyl)phenoxy]methyl]benzoyl]amino]acetic Acid Trifluoroacetate]
6 | 29 | COCCOCCN(CC(=O)O)C(=O)c1cccc(COc2ccc(-c3cc(F)c(F)cc3SC)cc2)c1 [Example 49, 2-[[3-[[4-(4,5-Difluoro-2-methylsulfanyl-phenyl)phenoxy]methyl]benzoyl]-[2-(2-methoxyethoxy)ethyl]amino]acetic Acid]
7 | 4.8 | CSc1cc(F)c(F)cc1-c1ccc(OCc2cccc(C(=O)N(CC(=O)O)CC3CCCNC3)c2)cc1 (centres unmarked) [Example 50, 2-[[3-[[4-(4,5-Difluoro-2-methylsulfanyl-phenyl)phenoxy]methyl]benzoyl]-(3-piperidylmethyl)amino]acetic Acid Trifluoroacetate]
8 | 5.8 | CSc1cc(F)c(F)cc1-c1ccc(OCc2cccc(C(=O)N(CCS(N)(=O)=O)CC(=O)O)c2)cc1 [Example 51, 2-[[3-[[4-(4,5-Difluoro-2-methylsulfanyl-phenyl)phenoxy]methyl]benzoyl]-(2-sulfamoylethyl)amino]acetic Acid]
9 | 8.1 | CSc1cc(F)c(F)cc1-c1ccc(OCc2cccc(C(=O)N(CC(=O)O)Cc3cocn3)c2)cc1 [Example 52, 2-[[3-[[4-(4,5-Difluoro-2-methylsulfanyl-phenyl)phenoxy]methyl]benzoyl]-(oxazol-4-ylmethyl)amino]acetic Acid]
10 | 8.2 | CSc1cc(F)c(F)cc1-c1ccc(OCc2cccc(C(=O)N(CC(=O)O)Cc3ccncn3)c2)cc1 [Example 53, 2-[[3-[[4-(4,5-Difluoro-2-methylsulfanyl-phenyl)phenoxy]methyl]benzoyl]-(pyrimidin-4-ylmethyl)amino]acetic Acid]
11 | 8.7 | CSc1cc(F)c(F)cc1-c1ccc(OCc2cccc(C(=O)N(CC(=O)O)Cc3ccn[nH]3)c2)cc1 [Example 54, 2-[[3-[[4-(4,5-Difluoro-2-methylsulfanyl-phenyl)phenoxy]methyl]benzoyl]-(1H-pyrazol-5-ylmethyl)amino]acetic Acid]
12 | 11 | CSc1cc(F)c(F)cc1-c1ccc(OCc2cccc(C(=O)N(CC(=O)O)Cc3ccnn3C)c2)cc1 [Example 55, 2-[[3-[[4-(4,5-Difluoro-2-methylsulfanyl-phenyl)phenoxy]methyl]benzoyl]-[(2-methylpyrazol-3-yl)methyl]amino]acetic Acid]
13 | 8 | CNS(=O)(=O)CCN(CC(=O)O)C(=O)c1cccc(COc2ccc(-c3cc(F)c(F)cc3SC)cc2)c1 [Example 56, 2-[[3-[[4-(4,5-Difluoro-2-methylsulfanyl-phenyl)phenoxy]methyl]benzoyl]-[2-(methylsulfamoyl)ethyl]amino]acetic Acid]
14 | 10 | CSc1cc(F)c(F)cc1-c1ccc(OCc2cccc(C(=O)N(CCS(=O)(=O)N(C)C)CC(=O)O)c2)cc1 [Example 59, 2-[[3-[[4-(4,5-Difluoro-2-methylsulfanyl-phenyl)phenoxy]methyl]benzoyl]-[2-(dimethylsulfamoyl)ethyl]amino]acetic Acid]
15 | 14 | CSc1cc(F)c(F)cc1-c1ccc(OCc2cccc(C(=O)N(CCc3noc(C)n3)CC(=O)O)c2)cc1 [Example 60, 2-[[3-[[4-(4,5-Difluoro-2-methylsulfanyl-phenyl)phenoxy]methyl]benzoyl]-[2-(5-methyl-1,2,4-oxadiazol-3-yl)ethyl]amino]acetic Acid]
16 | 17 | CSc1cc(F)c(F)cc1-c1ccc(OCc2cccc(C(=O)N3C[C@H](C(N)=O)C[C@H]3C(=O)O)c2)cc1 [Example 61, (2S,4R)-4-Carbamoyl-1-[3-[[4-(4,5-difluoro-2-methylsulfanyl-phenyl)phenoxy]methyl]benzoyl]pyrrolidine-2-carboxylic Acid]
17 | 20 | CSc1cc(F)c(F)cc1-c1ccc(OCc2cccc(C(=O)N3[C@@H](CO)CC[C@H]3C(=O)O)c2)cc1 [Example 64, (2S,5R)-1-[3-[[4-(4,5-Difluoro-2-methylsulfanyl-phenyl)phenoxy]methyl]benzoyl]-5-(hydroxymethyl)pyrrolidine-2-carboxylic Acid]
18 | 7 | COC[C@H]1CC[C@@H](C(=O)O)N1C(=O)c1cccc(COc2ccc(-c3cc(F)c(F)cc3SC)cc2)c1 [Example 65, (2S,5R)-1-[3-[[4-(4,5-Difluoro-2-methylsulfanyl-phenyl)phenoxy]methyl]benzoyl]-5-(methoxymethyl)pyrrolidine-2-carboxylic Acid]
19 | 22 | CSc1cc(F)c(F)cc1-c1ccc(OCc2cccc(C(=O)N(CC(=O)O)Cc3ccon3)c2)cc1 [Example 66, 2-[[3-[[4-(4,5-Difluoro-2-methylsulfanyl-phenyl)phenoxy]methyl]benzoyl]-(isoxazol-3-ylmethyl)amino]acetic Acid]
20 | 19 | CSc1cc(F)c(F)cc1-c1ccc(OCc2cccc(C(=O)N(CC(=O)O)Cc3coc(C)n3)c2)cc1 [Example 67, 2-[[3-[[4-(4,5-Difluoro-2-methylsulfanyl-phenyl)phenoxy]methyl]benzoyl]-[(2-methyloxazol-4-yl)methyl]amino]acetic Acid]
21 | 35 | CSc1cc(F)c(F)cc1-c1ccc(OCc2cccc(C(=O)N(CC(=O)O)Cc3nc(C)no3)c2)cc1 [Example 68, 2-[[3-[[4-(4,5-Difluoro-2-methylsulfanyl-phenyl)phenoxy]methyl]benzoyl]-[(3-methyl-1,2,4-oxadiazol-5-yl)methyl]amino]acetic Acid]
22 | 23 | CSc1cc(F)c(F)cc1-c1ccc(OCc2cccc(C(=O)N(CC(=O)O)Cc3noc(C)n3)c2)cc1 [Example 69, 2-[[3-[[4-(4,5-Difluoro-2-methylsulfanyl-phenyl)phenoxy]methyl]benzoyl]-[(5-methyl-1,2,4-oxadiazol-3-yl)methyl]amino]acetic Acid]
23 | 14 | CSc1cc(F)c(F)cc1-c1ccc(OCc2cccc(C(=O)N(CCn3cncn3)CC(=O)O)c2)cc1 [Example 70, 2-[[3-[[4-(4,5-Difluoro-2-methylsulfanyl-phenyl)phenoxy]methyl]benzoyl]-[2-(1,2,4-triazol-1-yl)ethyl]amino]acetic Acid]
